The source of these data is patent publication US20180325933A1, “FOOD INTAKE, BODY WEIGHT AND GLUCOSE METABOLISM REGULATION BY MODULATION OF P2Y6 RECEPTOR SIGNALING” (priority 2014, published 2018).

No end group written: not given here.

In data set [1] the test system is P2Y1, P2Y2, P2Y4 or P2Y11 receptors. Particulars: cited from earlier work.
In data set [2] the test system is wild type mice fed a normal chow diet. In words: Spontaneous food intake after intracerebroventricular (ICV) administration. The class given is in vivo. The procedure: To explore whether UDP plays a direct role on the central regulation of feeding behavior, the effect of intracerebroventricular administration (ICV) of UDP on spontaneous food intake in wild type mice fed with a normal chow diet was measured. Therefore, mice were anesthetized using ketamine/dexmedetomidine. Guide cannulas (26 gauges) were stereotaxically inserted into the lateral ventricle (bregma −0.2 mm, midline 1.0 mm, dorsal surface −2.1 mm). Animals were allowed to recover for one week prior to experiments.
Prior to the onset of the dark phase, mice acutely received 2 μL ICV administration of UDP (1 μM, 10 μM and 30 μM; Sigma-Aldrich®), MRS 2578 (1 μM, 10 μM; Sigma-Aldrich®), or control solution (NaCl). Spontaneous food intake was measured 2 and 4 hours after ICV administration from pre-weighed portions of food dispensed from the food rack. […] UDP appears to be a strong orexigenic agent as administration of 30 μM UDP induces a 45% increase of spontaneous food intake.
FIG. 1: (A) Food intake measurement (depicted as food intake to body weight) after intracereborventricular (icv) administration of increasing doses of UDP (1 μM, 10 μM and 30 μM) or vehicle (saline) (n=26vs13vs11vs14). (B) Food intake measurement (depicted as food intake to body weight) after intracereborventricular (icv) administration of P2Y6 antagonist MRS2578 (1 μM and […]) or vehicle (saline) (n=9vs5vs5). Data are presented as mean±SEM. **p<0.01, ***p<0.001.

A further data set has as its system AgRP neurons. In words: Electrophysiological recordings from AgRP-neurons. The class given is cell-based, AgRPtdTomato mice. The source says: Next the inventors aimed to further directly support the notion, that the P2Y6 agonist UDP can modulate the activity of AgRP-expressing neurons in the ARH. Therefore, the inventors performed electrophysiological recordings from transgenic mice which express red tomato protein under control of the AgRP promoter through Cre-loxP-mediated recombination in (B6; 129S6-Gt(ROSA)26Sortm9(CAG-tdTomato)Hze/J) mice (AgRPtdTomato) (FIGS. 4B and 4C). […] Collectively, these experiments indicate that orexigenic AgRP/NPY-coexpressing neurons in the ARH not only express the UDP receptor P2Y6 but that they are directly activated following UDP application both in vitro and in vivo.
Having defined that the food intake-promoting activity of UDP is mediated through P2Y6-dependent signaling, the inventors aimed to assess whether also UDP's ability to activate AgRP-neuron firing depends on functional P2Y6 signaling. To this end, the inventors performed electrophysiological recordings from genetically identified AgRP-neurons in AgRPtdTomato mice. […] Thus, not only UDP-induced activation of feeding but also UDP-stimulated activation of AgRP-neurons critically depends on functional P2Y6 signaling.
FIG. 4: (A) Confocal images and quantitative comparison of ARH cFos immunoreactive cells in NPY-GFP mice after intracerebroventricular administration of vehicle (saline) or 30 μM UDP (n=3 vs. 4). (B) Recording of an AgRPtdTomato neuron showing the increase in action potential frequency in response to the application of 3 μM UDP. […] (C) Identification of a recorded neuron by antibody staining against tdTomato (red) and a biocytin backfill of the recorded neuron (green). (D) Overall responsiveness to 3 μM UDP of the recorded AgRP neuron population (n=11 in total: 4 non-responsive neurons vs 7 responsive). (E) Quantification of action potential (AP) frequency (n=11). Grey circles mark single recordings responding with a significant increase in AP frequency, open circles are non-responsive neurons. All recordings have been conducted in synaptically isolated neurons. Scale bars: A, 50 μm; B, 100 μm and C, […] and […] in the magnifications, respectively. V3, third ventricle. Data are presented as mean±SEM, *p<0.05 (A) and as boxplots generated according to the “Tukey method” (mean: “+” median: horizontal line) (E). *p<0.05.
FIG. 6: Food intake measurement after intracerebroventricular (icv) administration of (A) vehicle (0.1% DMSO), 1 μM of the P2Y6-specific antagonist MRS […] or co-icv of 30 μM UDP and 1 μM MRS 2578 (n=10vs11vs14vs12), or (B) vehicle (0.1% DMSO), 1 μM MRS 2578, 2 μg ghrelin or co-icv of 2 μg ghrelin and 1 μM MRS 2578 (n=13vs13vs14vs14). (C) Original traces showing the action potential firing during the application of MRS 2578 and during the application of 3 μM UDP in the presence of MRS 2578. (D) Quantification of action potential frequency (AP) (n=12). Data are presented as mean±SEM, *p<0.05 (A-B) and as boxplots generated according to the “Tukey method” (mean: “+”, median: horizontal line) […]. *p<0.05, **p<0.01, ***p<0.001 as compared to vehicle or control.

Another data set has as its system P2Y6. In words: Food intake after icv UDP or ghrelin with or without P2Y6 antagonist. The class given is in vivo, mice.
The test system of data set [3] is pERK-positive cells in the ARH. Briefly: pERK immunoreactivity in the arcuate nucleus after icv administration. The class given is in vivo, mice. Particulars: icv 30 μM UDP. The procedure: (§1) Having identified a restricted domain of P2Y6 expression in neurons of the ARH, the inventors next investigated whether intracerebroventricular (icv) application of the P2Y6 agonist UDP modulates activation of ARH neurons. To this end, C57BL/6 N control mice were implanted with icy cannulas in the lateral ventricle. Following icy administration of either vehicle (i.e. saline) or 30 μM UDP, brains were processed for immunochemistry with an antibody, which detects the immediate early gene product cFos. […] Since cFos activation can occur either directly in the respective brain area or indirectly via trans-synaptic activation of cells located in projecting areas of directly activated neurons, the inventors investigated the direct effect of UDP on its P2Y6. […] Therefore, the inventors also used pERK as a direct read-out of UDP action and the inventors assessed pERK immunoreactivity in the arcuate nucleus following icy UDP application. […]
(§2) FIG. 3: Confocal images and quantification comparison of (A) cFos- and (B) pERK-immunoreactive cells in the arcuate nucleus (ARH) of mice after intracerebroventricular administration of vehicle (saline) or 30 μM UDP (ncFos=7vs9; npERK=5vs6). […] (C) Quantification and representative immunoblots of phosphorylated and total ERK in hypothalamic cell lines after incubation with vehicle (saline) or 1 μM UDP (n=11vs12, from 3 independent experiments). […]

The subject of a further data set is NPY-neurons in the ARH. In words: cFos immunoreactivity of NPY-neurons in NPY-GFP mice after icv administration. The class given is in vivo. Particulars: icv 30 μM UDP; 20% following vehicle. The source says: Given that the ventromedial part of the ARH mainly contains AgRP/NPY neurons, the inventors next directly investigated the specific effect of P2Y6/UDP on those neurons. The inventors addressed whether icy application of UDP specifically activates NPY/AgRP-coexpressing neurons in the ARH. The inventors therefore repeated the UDP-induced cFos experiments in mice, which express GFP under control of the neuropeptide (NPY)-promotor (NPY-GFP-mice).
FIG. 4: (A) Confocal images and quantitative comparison of ARH cFos immunoreactive cells in NPY-GFP mice after intracerebroventricular administration of vehicle (saline) or 30 μM UDP (n=3 vs. 4). (B) Recording of an AgRPtdTomato neuron showing the increase in action potential frequency in response to the application of 3 μM UDP. […] (C) Identification of a recorded neuron by antibody staining against tdTomato (red) and a biocytin backfill of the recorded neuron (green). (D) Overall responsiveness to 3 μM UDP of the recorded AgRP neuron population (n=11 in total: 4 non-responsive neurons vs 7 responsive). (E) Quantification of action potential (AP) frequency (n=11). Grey circles mark single recordings responding with a significant increase in AP frequency, open circles are non-responsive neurons. All recordings have been conducted in synaptically isolated neurons. […]

The test system of a further data set is AgRPCre mice. Briefly: Food intake with pharmacogenetic (hM4D/CNO) inhibition of AgRP cells. The class given is in vivo. The following applies: icv 30 μM UDP. From the text:
To directly assess, whether the ability of centrally applied UDP to activate feeding depends on AgRP-cell activation, the inventors investigated the effect of centrally administered UDP in mice, which allow for pharmacogenetic inhibition of AgRP cells. To this end, the inventors injected AgRPCre mice bilaterally into the ARH with an AAV, which co-expresses in a Cre-dependent manner the inhibtory DREADD-channel hM4D and mCherry.
FIG. 5: (A) Representative microphotographs of mCherry immunostainng in control and AgRP^Cre mice injected bilaterally in the arcuate nucleus (ARH) with Cre-dependent rAAV-hSyn-DIO-hM4D(Gi)-mCherry (mCherry, red; DAPI counterstaining, blue). Scale bar: 100 μm. V3, third ventricle. (B) Food intake measurement in virus-injected AgRP^Cre mice or control wild type litter mates. Mice received CNO injections (0.3 mg/kgBW) 15 minutes prior to icy administration of 30 μM UDP or vehicle (Saline) (n=6 vs 8 vs 5 vs 5). Data are presented as mean±SEM, **p<0.01, ***p<0.001 as compare to vehicle.

In data set [4] the test system is hypothalamic cell line (immortalized AgRP-neurons). Briefly: ERK phosphorylation in hypothalamic cell line (immunoblot). The class given is cell-based. Particulars: 1 μM UDP. The protocol: as §1, §2
For data set [5], the system named is cFos immunoreactive cells in the arcuate nucleus of the hypothalamus. Briefly: cFos immunoreactivity in the arcuate nucleus after icv administration. The class given is in vivo, C57BL/6 N mice. Particulars: icv 30 μM UDP versus vehicle (saline). The protocol: as §1, §2
A short description of data set [6]: Hypothalamic UDP content after intraperitoneal uridine. The class given is in vivo, C57BL/6 N mice. Particulars: 50 mg/kgBW uridine i.p., 90 minutes after application. The protocol:
(§3) To directly address whether elevation of serum uridine concentrations—as observed in obesity—can lead to increased hypothalamic UDP synthesis, the inventors next injected C57BL/6 N control animals intraperitoneally with uridine.
(§4) FIG. 9: Effects of intraperitoneal injection of uridine (50 mg/kgBW) or vehicle (saline) in C57B16/N mice on (A) serum uridine (n=4-5 per group) and on (B) hypothalamic UDP contents (n=5 per group) 60 and 90 minutes post-injection as well on (C) food intake (n=15 per group). Data are presented as mean±SEM, *p<0.05, **p<0.01, ***p<0.001.

A short description of data set [7]: Serum uridine after intraperitoneal uridine. The class given is in vivo, C57BL/6 N mice. The following applies: 50 mg/kgBW uridine i.p. The procedure:
as §3, §4

Data set [8] has as its system C57BL/6 N control animals. In words: Food intake after intraperitoneal uridine. The following applies: 50 mg/kgBW uridine i.p., 4 hours after application. The class given is in vivo, C57BL/6 N mice. The protocol: as §3, §4

Description for P2Y6: To further elucidate the specific contribution of P2Y6-mediated signaling in UDP-dependent activation of food intake, the inventors took a pharmacological approach.
Data are presented as mean±SEM, *p<0.05 (A-B) and as boxplots generated according to the “Tukey method” (mean: “+”, median: horizontal line) (F). *p<0.05, **p<0.01, ***p<0.001 as compared to vehicle or control.

On to `S=C=Nc1cccc(NC(=S)NCCCCNC(=S)Nc2cccc(N=C=S)c2)c1` [MRS2578, 1,4-Di[3-(3-isothiocyanatophenyl)thioureido]butane], for which the “selectivity for P2Y6 receptor activity versus activity at P2Y1, P2Y2, P2Y4 or P2Y11 receptors” value in data set [1] was “selectively blocks P2Y6 receptor activity”. For the same compound, the spontaneous food intake entry in data set [2] (ICV 2 μL MRS 2578 (1 μM, 10 μM)) was “decreases food intake”. Besides, the “effect on UDP's ability to reduce the membrane potential and activate action potential firing of AgRP-neurons” value with AgRP neurons (MRS 2578-preincubation, 3 μM UDP) was “abrogated”. The “action potential frequency of AgRP-neurons, antagonist alone” value in the data set on AgRP neurons (MRS 2578 alone) is “no influence on action potential frequency”. Further, the “effect on ghrelin's ability to increase food intake” value in the data set on P2Y6 (co-icv 2 μg ghrelin and 1 μM MRS 2578) is listed as “no effect”. In the data set with P2Y6 (co-icv 30 μM UDP and 1 μM MRS 2578), the “effect on UDP-induced increase of food intake” value is given as “completely abrogated”. In addition, the “food intake, antagonist alone” value in the data set with P2Y6 (icv 1 μM MRS 2578) is “does not modulate food intake by itself”.
Regarding `O=c1ccn([C@@H]2O[C@H](COP(=O)(O)OP(=O)(O)O)[C@@H](O)[C@H]2O)c(=O)[nH]1` [UDP, uridine diphosphate], the “number of pERK-positive cells in the ARH” value in data set [3] is listed as “significantly increased the number of pERK-positive cells”. In addition, the “proportion of NPY-neurons exhibiting cFos immunoreactivity” value in the data set with NPY-neurons in the ARH was 60%. For the same compound, the “UDP's food intake stimulatory effect” value with AgRPCre mice (AAV-injected AgRPCre mice, CNO-mediated inhibition of AgRP-neurons) is recorded as “completely abolished”. The “effect of AAV injection and CNO on UDP-induced food intake” value in the data set with AgRPCre mice (Cre-negative control animals, CNO 0.3 mg/kgBW) was “no effect”. Also, the ERK-phosphorylation result in data set [4] was “clearly increased ERK-phosphorylation”. The “increase in cFos immunoreactivity in the arcuate nucleus of the hypothalamus” value in data set [5] is 2.5 fold. The “increase of spontaneous food intake” value in data set [2] (ICV 30 μM UDP) amounted to 45%. For the same compound, the spontaneous food intake entry in [2] (ICV 2 μL, 1 μM, 10 μM and 30 μM, food intake measured 2 and 4 hours after ICV) is recorded as “increases food intake in a dose-dependent manner”. The “action potential frequency of AgRP neurons” value in the data set on AgRP neurons (3 μM UDP) was “increased action potential frequency”. The “number of responsive neurons in the recorded AgRP neuron population” value in the data set with AgRP neurons (3 μM UDP, n=11 in total) worked out at 7. In the data set on AgRP neurons (electrophysiology, 3 μM UDP), the “proportion of AgRP-neurons sensitive to UDP” value is reported as 60%. Also, the “increase of food intake” value in the data set with P2Y6 (icv UDP alone) is “≈ 50%”.
In the case of `O=c1ccn([C@@H]2O[C@H](CO)[C@@H](O)[C@H]2O)c(=O)[nH]1` [uridine], in data set [6], the “hypothalamic UDP content” value was “elevation of hypothalamic UDP content”. For the same compound, the serum uridine concentrations entry in data set [7] (60 minutes post injection) is reported as “rapid increase of serum uridine concentrations”; in [7] (90 minutes after injection), “returned to baseline concentrations”. For the same compound, the food intake entry in [8] is on record as “increased food intake significantly”.
As to “ghrelin: centrally applied ghrelin, used to increase feeding as specificity control (GSSFLSPEHQRVQQRKESKKPPAKLQPR; ends and bridges not checked; UniProt Q9UBU3 24-51, looked up)”, the feeding entry in the data set with P2Y6 (icv 2 μg ghrelin) is “increased feeding to comparable extend as observed upon UDP injection”.
